For data set [1], the system named is L6. The experiment in a line: Cytotoxicity against rat L6 cells. It counts as ADME, cell-based.
In data set [2] the test system is Plasmodium falciparum. The experiment in a line: Antiplasmodial activity against chloroquine-resistant Plasmodium falciparum K1. It counts as functional, organism-based.
For data set [3], the system named is Leishmania donovani. The experiment in a line: Antileishmanial activity against Leishmania donovani. The data set is classed as functional, organism-based.
Data set [4] has as its system Plasmodium falciparum. The experiment in a line: Antimalarial activity against chloroquine-resistant Plasmodium falciparum Dd2 after 24 hrs by [3H]hypoxanthine uptake. It counts as functional, organism-based.
Data set [5] is described as follows: Inhibition of GST-tagged Plasmodium falciparum MetAP 1B by […].
Data set [6] in a line: Selectivity ratio of IC50 for rat L6 cells to IC50 for Leishmania donovani.

A value given as a limit tells only on which side of the number the result lay.

One may read the IC50 as the point on the concentration scale where inhibition reaches its midpoint. With `Cc1cc(NCCc2ccccc2)nc(-c2ccccn2)n1`, the IC50 in data set [1] amounted to 18.3 µM; in data set [2], 3.7 µM; in data set [3], 3 µM.

Turning to `Cc1nc(-c2ccccn2)nc(N2CCC(c3ccccc3)CC2)c1Cl`, the half-inhibitory concentration (IC50) amounted to 183 µM in data set [1], 8.9 µM in data set [2] and 1.1 µM in data set [3].

Turning to `Cc1nc(-c2ccccn2)nc(NCCNc2cc(C(F)(F)F)ccn2)c1Cl`, the values for the IC50 in data set [1], in data set [2] and in data set [3] were 5.2 µM, 2.74 µM and 0.28 µM, respectively.

As to `Cc1nc(-c2ccccn2)nc(N2CCN(CCO)CC2)c1Cl`, the values for the IC50 in data set [1], in data set [2] and in data set [3] were 270 µM, 7.5 µM and 156 µM, respectively.

Regarding `Cc1nc(-c2ccccn2)nc(NCCS(=O)(=O)c2ccccc2)c1Cl`, the IC50 amounted to 72.8 µM in data set [1], 10.4 µM in data set [2] and 11.4 µM in data set [3].

As for `Cc1nc(-c2ccccn2)nc(NCC2CCOC2)c1Cl` (stereo unspecified), the concentration for half-maximal inhibition (IC50) in data set [1] was 125 µM; in data set [2], 15.3 µM; in data set [3], 10.5 µM.

With `Cc1nc(-c2ccccn2)nc(NCc2ccc(S(C)(=O)=O)cc2)c1Cl`, the results for the IC50 in data set [1], in data set [2] and in data set [3] were 93.6 µM, 10.1 µM and 10.7 µM, respectively.

Consider `Cc1nc(-c2ccccn2)nc(NCc2ccccc2)c1Cl`, for which the half-inhibitory concentration (IC50) in data set [1] worked out at 70.1 µM; in data set [2], 3.2 µM; in data set [3], 0.47 µM.

For `Cc1nc(-c2ccccn2)nc(NCCc2ccc(S(C)(=O)=O)cc2)c1Cl`, the half-maximal inhibitory concentration (IC50) in data set [1] stood at 104 µM; in data set [2], 8.2 µM; in data set [3], 7.4 µM.

Consider `Cc1nc(-c2ccccn2)nc(NCCc2cccc(Cl)c2)c1Cl`, for which the IC50 came out at 32.6 µM in data set [1], 2.5 µM in data set [2] and 0.44 µM in data set [3].

Regarding `Cc1nc(-c2ccccn2)nc(N2CCC(c3ccccc3)C2)c1Cl` (stereo unspecified), the 50% inhibitory concentration (IC50) in data set [1] amounted to 133 µM; in data set [2] it was 4.7 µM; in data set [3], 0.39 µM.

`Cc1nc(-c2ccccn2)nc(NCCc2ccccc2)c1Cl`: the IC50 is 25.5 µM in data set [1]; 9.8 µM in data set [2]; 0.5 µM in data set [3]; 3.1 µM in data set [4]; 0.11 µM in data set [5].

For the compound `Cc1nc(-c2ccccn2)nc(NCCCc2ccccc2)c1Cl`, the results for the IC50 in data set [1], in data set [2] and in data set [3] were 73.5 µM, 1.9 µM and 0.48 µM, respectively.

Regarding `Cc1nc(-c2ccccn2)nc(N(C)CCc2ccccc2)c1Cl`, the values for the 50% inhibitory concentration (IC50) in data set [1], in data set [2] and in data set [3] were 62.5 µM, 3.5 µM and 0.32 µM, respectively.

Turning to `COc1ccc(CCNc2nc(-c3ccccn3)nc(C)c2Cl)cc1`, the IC50 in data set [1] stood at 8.7 µM; in data set [2] it was 2.5 µM; in data set [3], 0.43 µM.

Take `Cc1nc(-c2ccccn2)nc(NCCc2ccncc2)c1Cl`: the values for the half-inhibitory concentration (IC50) in data set [1], in data set [2] and in data set [3] were 110 µM, 9.5 µM and 14.1 µM, respectively.

As to `Cc1nc(-c2ccccn2)nc(NC2Cc3ccccc3C2)c1Cl`, the half-maximal inhibitory concentration (IC50) in data set [1] is 33.2 µM; in data set [2] it was 3.7 µM; in data set [3] it was 0.42 µM.

Consider `CCN(CC)c1nc(-c2ccccn2)nc(C)c1Cl`, for which the results for the IC50 in data set [1], in data set [2] and in data set [3] were 148 µM, 9 µM and 1.22 µM, respectively. Also, the selectivity ratio in data set [6] is > 10.

`Cc1nc(-c2ccccn2)nc(NCC2CCCCC2)c1Cl`: the IC50 in data set [1] was found to be 42.4 µM; in data set [2], 2.4 µM; in data set [3], 0.31 µM.

In the case of `Cc1nc(-c2ccccn2)nc(NCCC2CCCCC2)c1Cl`, the IC50 in data set [1] came to 49.5 µM; in data set [2] it was 2.3 µM; in data set [3], 0.26 µM.

As for `Cc1nc(-c2ccccn2)nc(N2CCCC2Cc2ccccc2)c1Cl` (stereo unspecified), the IC50 was 92.3 µM in data set [1], 4.3 µM in data set [2] and 0.63 µM in data set [3].

As for `Cc1nc(-c2ccccn2)nc(N2CCC(Cc3ccccc3)C2)c1Cl` (stereo unspecified), the IC50 in data set [1] came to 88 µM; in data set [2], 3.1 µM; in data set [3], 0.38 µM.

Turning to `Cc1nc(-c2ccccn2)nc(N2CCN(S(=O)(=O)c3ccccc3)CC2)c1Cl`, the figures for the IC50 in data set [1], in data set [2] and in data set [3] were 210 µM, 11.6 µM and 54.4 µM, respectively.

As for `Cc1nc(-c2ccccn2)nc(NCCc2ccc(Cl)cc2)c1Cl`, the values for the IC50 in data set [1], in data set [2] and in data set [3] were 40.4 µM, 2 µM and 0.45 µM, respectively.

With `Cc1nc(-c2ccccn2)nc(N)c1Cl`, the results for the IC50 in data set [1], in data set [2] and in data set [3] were 85.3 µM, 20.8 µM and 3.3 µM, respectively. Also, the selectivity ratio in data set [6] is > 10.

With `Cc1nc(-c2ccccn2)nc(N(C)C)c1Cl`, the 50% inhibitory concentration (IC50) in data set [1] turned out to be 115 µM; in data set [2], 15.1 µM; in data set [3], 1.1 µM. Moreover, in data set [6], the selectivity ratio was > 10.

For `FC(F)(F)c1cc(NCCc2ccccc2)nc(-c2ccccn2)n1`, the figures for the IC50 in data set [1], in data set [2] and in data set [3] were 74.2 µM, 8.2 µM and 2 µM, respectively.

Consider `Cc1nc(-c2ccccn2)nc(N2CCCC2c2ccccc2)c1Cl` (stereo unspecified), for which the half-maximal inhibitory concentration (IC50) in data set [1] amounted to 76.5 µM; in data set [2], 4.1 µM; in data set [3], 0.7 µM.

In the case of `Cc1nc(-c2ccccn2)nc(NCCc2ccccc2Cl)c1Cl`, the half-maximal inhibitory concentration (IC50) in data set [1] was found to be 91.6 µM; in data set [2], 6.3 µM; in data set [3], 1.2 µM.

On to `C[C@@H]1CC[C@H]2[C@@H](C)C(=O)O[C@@H]3O[C@@]4(C)CC[C@@H]1[C@]32OO4` [ARTEMISININ], for which the 50% inhibitory concentration (IC50) in data set [1] is > 170 µM; in data set [2], 0.005 µM.

Turning to `CCN(CC)CCCC(C)Nc1ccnc2cc(Cl)ccc12` (stereo unspecified) [CHLOROQUINE], 70.1 µM corresponded to half-maximal inhibition in data set [1] (IC50).

In data set [3], `CCCCCCCCCCCCCCCCOP(=O)([O-])OCC[N+](C)(C)C` [MILTEFOSINE] showed a half-inhibitory concentration (IC50) of 0.7 µM.

For the origin of these results see ChEMBL document CHEMBL1149084, “Synthesis and evaluation of 2-pyridyl pyrimidines with in vitro antiplasmodial and antileishmanial activity” (Bioorg Med Chem Lett, 2009).
